A melting point compilation (Tetko et al.; mined from patent text by program, amines drawn as free bases though some values may be those of a salt)

| SMILES | melting point [°C] |
| --- | --- |
| CC(C)(c1ccccc1)c1cc(C(C)(C)c2ccccc2)c(O)cc1O | 130 |
| CC(C)(C)CC(C)(C)Nc1nc(Cl)nc(N2CC3CCC(CC3)C2)n1 | 159 to 162 |
| O=C1N(c2ccccc2)c2ccccc2C1(Cc1ccncc1)Cc1ccncc1 | 186 to 188 |
| C=C1N(C)C(=O)OC12CCN(Cc1ccccc1)CC2 | 96 to 97 |
| CC(C)CN(C)c1cc2c(cc1C(F)(F)F)NC(=O)CC(c1cccc(-n3cncn3)c1)=N2 | 198 |
| CC(C=Cc1cccc(-c2cc3c(cc2C)C(C)(C)CCC3(C)C)c1)=CC(=O)O | 99 to 101 |
| Nc1cc(Cl)c(Cl)cc1I | 79.5 to 80.5 |
| CC(C)Cc1ccc2c(c1O)C(=O)c1ccc(CC(C)C)c(O)c1C2=O | 188 |
| Cc1cc2c(cc1C)C(c1ccccc1)(C(F)(F)C(F)(F)F)c1cc3c(cc1O2)Oc1cc(C)c(C)cc1C3(c1ccccc1)C(F)(F)C(F)(F)F (stereo not drawn) | 228 to 233 |
| CCOC(=O)c1ncn2c1CN(C)C(=S)c1cc(F)ccc1-2 | 157 to 159 |
| Cn1nc(C(F)(F)F)cc1Oc1cc(C#N)cc(-c2cc(C(F)(F)F)nn2C)n1 | 164 to 165 |
| N#Cc1ccc(-c2nccc3[nH]c(=O)ccc23)cc1 | > 300 |
| O=S(Cc1[nH]c2ccccc2c1Sc1ccccc1)c1ccccc1 (stereo not drawn) | 71 to 74 |
| CC(C)C(=O)c1cn(Cc2c(F)cccc2F)c2sc(-c3ccccc3)c(CBr)c2c1=O | 189 to 192 |
| C=CC(=O)OCCCC#Cc1ccc(C(F)(F)Oc2ccc(OC(F)(F)c3ccc(C#CCCCOC(=O)C=C)cc3)c(C)c2)cc1 | 51 |
| CC(C)(Cc1c[nH]c2ccccc12)NC[C@H](O)CO | 77 to 77.8 |
| O=c1c2c[nH]c3ccccc3c-2nn1-c1ccccc1 | 326 to 328 |
| CN1C(=O)COc2cc3c(cc21)OCC31C(=O)Nc2ccccc21 (stereo not drawn) | > 250 |

Second part, the compound after the results:

| melting point [°C] | SMILES |
| --- | --- |
| 146 to 147 | NS(=O)(=O)Oc1cc(Cl)cc(Cl)c1 |
| 185 to 187 | CCOC(=O)c1ccc(NC(=O)Cn2ccnc2)cc1 |
| 68 to 69 | COC(=O)c1cc(C)cc(C#N)c1 |
| 183 to 185 | COC(=O)c1cnc(C(=O)O)cn1 |
| 179 to 181 | CCCCc1oc2ccccc2c1C(=O)Nc1ccc2c(Br)c(OCC(=O)OC)ccc2c1 |
| 110 | CC(C)(C)OC(=O)c1ccc(N(Cc2ccc(C(=O)O)cc2)Cc2cc(Br)ccc2OCc2ccccc2)cc1 |
| 114 to 115 | CC(F)c1ncnc(NCc2ccc(C(C)(C)C)cc2)c1I (stereo not drawn) |
| 108 to 110 | Cc1cc(C)nc(Oc2ccc([N+](=O)[O-])cc2)n1 |
| 190 to 192 | Cn1c(=O)ccc2c(-c3ccccc3)nccc21 |
| 185 to 187 | CC(C)(C)[C@H]1CC[C@H](N(Cc2ccc(C(=O)NC[C@H](O)C(=O)O)cc2)C(=O)Nc2cc(C(F)(F)F)cc(C(F)(F)F)c2)CC1 |
| 186 to 187 | COc1cc(Nc2nccc(-c3ccc(N4CC(O)C4)nc3)n2)cc(OC)c1OC |
| 144 to 145 | O=C(NCc1cc(C(F)(F)F)cc(C(F)(F)F)c1)c1cnc(Cl)nc1Cl |
| 199 to 200 | Cc1nc(-c2ccccc2)nc(-c2cccc([N+](=O)[O-])c2)c1C(=O)NCCCl |
| 145 to 148 | CCC(=CC(CNC(=O)c1ccncc1)=NO)C(C)[N+](=O)[O-] (stereo not drawn) |
| 114 to 115 | CC(C)(Cl)C(CO)=NO |
| 88 to 90 | COC(=O)C(C)c1nsc2ccc([N+](=O)[O-])cc12 (stereo not drawn) |
| 253 to 263 | C=CC1(F)CN(C2CCCC2)c2nc(Nc3ccc(C(=O)NN4CCN(C)CC4)cc3OC)ncc2N(C)C1=O (stereo not drawn) |
| 170 to 172 | CCCCOC(=O)n1c(N)nc(C#N)c1C#N |
| 151 to 153 | CCOC(=O)C(O[Si](C)(C)C)C(O[Si](C)(C)C)c1cc(OC)c(OC)cc1[N+](=O)[O-] (stereo not drawn) |
| 96 to 97 | COC(=O)c1cncc(OCc2cccc(OCc3nc(-c4ccccc4)oc3C)c2)c1 |
